Target: T1, purified human HDAC6 (Homo sapiens, UniProt Q9UBN7)
T1 construct: purchased BPS Bioscience 5006
T1 sequence (Q9UBN7 1-1215): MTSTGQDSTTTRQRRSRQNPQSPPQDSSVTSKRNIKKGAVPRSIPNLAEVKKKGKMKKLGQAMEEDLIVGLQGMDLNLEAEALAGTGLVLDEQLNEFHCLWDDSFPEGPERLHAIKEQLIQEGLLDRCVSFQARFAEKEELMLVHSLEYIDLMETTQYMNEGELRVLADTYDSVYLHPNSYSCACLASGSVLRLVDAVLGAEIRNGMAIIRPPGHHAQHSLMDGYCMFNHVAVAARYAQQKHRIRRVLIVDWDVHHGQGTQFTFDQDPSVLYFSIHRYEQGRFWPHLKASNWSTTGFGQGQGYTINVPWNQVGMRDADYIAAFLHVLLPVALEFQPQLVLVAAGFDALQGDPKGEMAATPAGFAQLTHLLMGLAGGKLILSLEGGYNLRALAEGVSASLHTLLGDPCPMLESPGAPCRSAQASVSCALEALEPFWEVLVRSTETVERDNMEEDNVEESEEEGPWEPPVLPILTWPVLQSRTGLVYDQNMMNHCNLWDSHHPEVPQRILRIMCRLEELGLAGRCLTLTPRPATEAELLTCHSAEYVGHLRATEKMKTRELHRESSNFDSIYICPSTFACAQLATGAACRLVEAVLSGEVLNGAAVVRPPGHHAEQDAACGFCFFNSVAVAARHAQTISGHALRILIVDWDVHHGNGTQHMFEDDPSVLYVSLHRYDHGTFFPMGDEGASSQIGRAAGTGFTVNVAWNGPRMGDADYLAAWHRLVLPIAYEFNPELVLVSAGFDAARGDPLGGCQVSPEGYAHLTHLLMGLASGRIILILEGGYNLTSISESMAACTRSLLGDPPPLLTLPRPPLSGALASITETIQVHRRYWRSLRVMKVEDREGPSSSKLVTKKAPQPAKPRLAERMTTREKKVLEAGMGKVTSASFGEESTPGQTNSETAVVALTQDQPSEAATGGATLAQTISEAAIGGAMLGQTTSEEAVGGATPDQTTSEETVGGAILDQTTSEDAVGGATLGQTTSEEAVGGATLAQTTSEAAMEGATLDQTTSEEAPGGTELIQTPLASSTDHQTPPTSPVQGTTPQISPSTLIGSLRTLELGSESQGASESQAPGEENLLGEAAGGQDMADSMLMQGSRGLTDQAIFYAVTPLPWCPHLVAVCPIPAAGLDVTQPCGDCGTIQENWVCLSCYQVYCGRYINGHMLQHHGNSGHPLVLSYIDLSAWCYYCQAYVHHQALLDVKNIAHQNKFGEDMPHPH
Test: HDAC6 Enzyme Assay
Type: biochemical
Conditions: read-out: Percent Inhibition; for inhibition at 0.412 µM: compound concentration 0.412 μM; for inhibition at 0.37 µM: compound concentration 0.37 μM
Procedure, shortened: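 Purified human HDAC6 incubated 1 h at 30° C with Ac-Arg-Gly-Lys(Ac)-AMC peptide plus compound or DMSO; stopped with trichostatin A. Deacetylated product trypsin-digested, released AMC read by fluorescence (Ex 340/Em 460 nm). Percent inhibition at one concentration or IC50 from curves relative to DMSO controls.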

SMILES	inhibition at 0.412 µM [%]	inhibition at 0.37 µM [%]
O=C(NO)c1ccc2ccn(CCCc3ccncc3)c(=O)c2c1 [Compound I-118, N-hydroxy-1-oxo-2-(3-pyridin-4-ylpropyl)-1,2-dihydroisoquinoline-7-carboxamide]	93.3	–
O=C(NO)c1ccc2ccn(Cc3cc(F)cc(F)c3)c(=O)c2c1 [Compound I-119, 2-(3,5-difluorobenzyl)-N-hydroxy-1-oxo-1,2-dihydroisoquinoline-7-carboxamide]	95.5	–
Cc1cccc(Cn2ccc3ccc(C(=O)NO)cc3c2=O)c1 [Compound I-120, N-hydroxy-2-(3-methylbenzyl)-1-oxo-1,2-dihydroisoquinoline-7-carboxamide]	94.8	–
CC(C)n1cnc2ccc(C(=O)NO)cc2c1=O [Compound I-121, N-hydroxy-3-isopropyl-4-oxo-3,4-dihydroquinazoline-6-carboxamide]	71.9	–
O=C(NO)c1ccc2ccn(Cc3ccccc3F)c(=O)c2c1 [Compound I-122, 2-(2-fluorobenzyl)-N-hydroxy-1-oxo-1,2-dihydroisoquinoline-7-carboxamide]	94.6	–
O=C(NO)c1ccc2[nH]c(=O)n(-c3ccccc3)c(=O)c2c1 [Compound I-123, N-hydroxy-2,4-dioxo-3-phenyl-1,2,3,4-tetrahydroquinazoline-6-carboxamide]	71.7	–
O=C(NO)c1ccc2ncn(Cc3cccc(-c4ccccc4C(F)(F)F)c3)c(=O)c2c1 [Compound I-124, N-hydroxy-4-oxo-3-{[2′-(trifluoromethyl)biphenyl-3-yl]methyl}-3,4-dihydroquinazoline-6-carboxamide]	–	91.4
O=C(NO)c1ccc2ncn(CCc3cccc(N4CCOCC4)c3)c(=O)c2c1 [Compound I-125, N-hydroxy-3-[2-(3-morpholin-4-ylphenyl)ethyl]-4-oxo-3,4-dihydroquinazoline-6-carboxamide]	–	88.2
O=C(NO)c1ccc2ncn(Cc3cccc(-c4cccc(C(=O)NC5CC5)c4)c3)c(=O)c2c1 [Compound I-126, 3-({3′-[(cyclopropylamino)carbonyl]biphenyl-3-yl}methyl)-N-hydroxy-4-oxo-3,4-dihydroquinazoline-6-carboxamide]	–	95.6
O=C(NO)c1ccc2ncn(Cc3cccc(Cl)c3)c(=O)c2c1 [Compound I-127, 3-(3-chlorobenzyl)-N-hydroxy-4-oxo-3,4-dihydroquinazoline-6-carboxamide]	96.1	–
O=C(NO)c1ccc2ncn(Cc3cccc(-c4ccncc4)c3)c(=O)c2c1 [Compound I-128, N-hydroxy-4-oxo-3-(3-pyridin-4-ylbenzyl)-3,4-dihydroquinazoline-6-carboxamide]	95.9	–
O=C(NO)c1ccc2ccn(CCCOc3ccc(-n4ccnc4)cc3)c(=O)c2c1 [Compound I-129, N-hydroxy-2-{3-[4-(1H-imidazol-1-yl)phenoxy]propyl}-1-oxo-1,2-dihydroisoquinoline-7-carboxamide]	96.3	–
CCC(CC)Cn1ccc2ccc(C(=O)NO)cc2c1=O [Compound I-130, 2-(2-ethylbutyl)-N-hydroxy-1-oxo-1,2-dihydroisoquinoline-7-carboxamide]	93	–
O=C(NO)c1ccc2ccn(CCCc3ccc(Cl)cc3)c(=O)c2c1 [Compound I-131, 2-[3-(4-chlorophenyl)propyl]-N-hydroxy-1-oxo-1,2-dihydroisoquinoline-7-carboxamide]	96.9	–
Cc1nc2cc(C(=O)NO)ccc2c(=O)n1C [Compound I-132, N-hydroxy-2,3-dimethyl-4-oxo-3,4-dihydroquinazoline-7-carboxamide]	59.8	–
O=C(NO)c1ccc2c(=O)n(Cc3ccc(C(F)(F)F)cc3)c(-c3cccnc3)nc2c1 [Compound I-133, N-hydroxy-4-oxo-2-pyridin-3-yl-3-[4-(trifluoromethyl)benzyl]-3,4-dihydroquinazoline-7-carboxamide]	–	92.2

Further lines, results first:

inhibition at 0.412 µM [%]	inhibition at 0.37 µM [%]	SMILES
–	88.6	O=C(NO)c1ccc2c(=O)n(Cc3ccc(C(F)(F)F)cc3)c(-c3ccc(Cl)cc3)nc2c1 [Compound I-134, 2-(4-chlorophenyl)-N-hydroxy-4-oxo-3-[4-(trifluoromethyl)benzyl]-3,4-dihydroquinazoline-7-carboxamide]
–	95.3	CS(=O)(=O)c1cccc(Cn2cnc3ccc(C(=O)NO)cc3c2=O)c1 [Compound I-135, N-hydroxy-3-[3-(methylsulfonyl)benzyl]-4-oxo-3,4-dihydroquinazoline-6-carboxamide]
–	94	COc1ncccc1-c1cccc(Cn2cnc3ccc(C(=O)NO)cc3c2=O)c1 [Compound I-136, N-hydroxy-3-[3-(2-methoxypyridin-3-yl)benzyl]-4-oxo-3,4-dihydroquinazoline-6-carboxamide]
–	99.5	O=C(NO)c1ccc2ccn(Cc3cccc(-n4ncc5ccccc54)c3)c(=O)c2c1 [Compound I-137, N-hydroxy-2-[3-(1H-indazol-1-yl)benzyl]-1-oxo-1,2-dihydroisoquinoline-7-carboxamide]
–	80.2	Cc1ncc(-c2nc3cc(C(=O)NO)ccc3c(=O)n2Cc2ccc(C(F)(F)F)cc2)n1C [Compound I-138, 2-(1,2-dimethyl-1H-imidazol-5-yl)-N-hydroxy-4-oxo-3-[4-(trifluoromethyl)benzyl]-3,4-dihydroquinazoline-7-carboxamide]
78.5	–	Cn1c(NCc2ccc(Cl)cc2)nc2cc(C(=O)NO)ccc2c1=O [Compound I-139, 2-[(4-chlorobenzyl)amino]-N-hydroxy-3-methyl-4-oxo-3,4-dihydroquinazoline-7-carboxamide]
96.5	–	COc1ccc(CCCn2ccc3ccc(C(=O)NO)cc3c2=O)cc1 [Compound I-140, N-hydroxy-2-[3-(4-methoxyphenyl)propyl]-1-oxo-1,2-dihydroisoquinoline-7-carboxamide]
90.5	–	CC(C)C(Cn1ccc2ccc(C(=O)NO)cc2c1=O)c1ccccc1 (centres unmarked) [Compound I-141, N-hydroxy-2-(3-methyl-2-phenylbutyl)-1-oxo-1,2-dihydroisoquinoline-7-carboxamide]
–	97.4	O=C(NO)c1ccc2ncn(Cc3cccc(S(=O)(=O)c4ccccc4)c3)c(=O)c2c1 [Compound I-142, N-hydroxy-4-oxo-3-[3-(phenylsulfonyl)benzyl]-3,4-dihydroquinazoline-6-carboxamide]
–	96.6	COc1ccc(-c2cccc(Cn3cnc4ccc(C(=O)NO)cc4c3=O)c2)cn1 [Compound I-143, N-hydroxy-3-[3-(6-methoxypyridin-3-yl)benzyl]-4-oxo-3,4-dihydroquinazoline-6-carboxamide]
81.2	–	O=C(NO)c1ccc2c(=O)[nH]c(COc3ccccc3Cl)nc2c1 [Compound I-144, 2-[(2-chlorophenoxy)methyl]-N-hydroxy-4-oxo-3,4-dihydroquinazoline-7-carboxamide]
76.7	–	O=C(NO)c1ccc2c(=O)[nH]c(COc3cc(Cl)cc(Cl)c3)nc2c1 [Compound I-145, 2-[(3,5-dichlorophenoxy)methyl]-N-hydroxy-4-oxo-3,4-dihydroquinazoline-7-carboxamide]
65.7	–	O=C(NO)c1ccc2c(=O)[nH]c(CNC3CCNCC3)nc2c1 [Compound I-146, N-hydroxy-4-oxo-2-[(piperidin-4-ylamino)methyl]-3,4-dihydroquinazoline-7-carboxamide]
93.2	–	O=C(NO)c1ccc2ncn(Cc3ccc(C(F)(F)F)cc3C(F)(F)F)c(=O)c2c1 [Compound I-147, 3-[2,4-bis(trifluoromethyl)benzyl]-N-hydroxy-4-oxo-3,4-dihydroquinazoline-6-carboxamide]
91.2	–	Cc1cc(Cn2ccc3ccc(C(=O)NO)cc3c2=O)no1 [Compound I-148, N-hydroxy-2-[(5-methylisoxazol-3-yl)methyl]-1-oxo-1,2-dihydroisoquinoline-7-carboxamide]
97.3	–	Cc1ccccc1OCCn1ccc2ccc(C(=O)NO)cc2c1=O [Compound I-149, N-hydroxy-2-[2-(2-methylphenoxy)ethyl]-1-oxo-1,2-dihydroisoquinoline-7-carboxamide]

— patent US8765773B2, “Substituted hydroxamic acids and uses thereof” (Millennium Pharmaceuticals, Inc., priority 2010, dated 2014)
